Assay results reported in patent publication US20080269213A1, “8-Hydroxyquinoline compounds and methods thereof” (Wyeth, priority 2006, published 2008).
Where “and” joins values, the source holds several entries; their conditions need not be identical. Identical values can stand only once. Like-named read-outs stand apart in the source and are kept apart here. One block for each compound: values may come before it.

Assays:
[1] = molecular target: T1, recombinant human Aggrecanase-2 Agg2-Phe628 (Homo sapiens, UniProt Q9UNA0); experiment: Aggrecanase 2 in vitro enzyme assay (Agg-2 FRET, quenched fluorescent peptide substrate); type: biochemical; parameters: purified recombinant human Aggrecanase-2 Agg2-Phe628 (MW=41,737); This is a truncated form of full-length human aggrecanase-2; made in house; host or cells: CHO cells
T1 sequence (Q9UNA0 262-628 limits assumed): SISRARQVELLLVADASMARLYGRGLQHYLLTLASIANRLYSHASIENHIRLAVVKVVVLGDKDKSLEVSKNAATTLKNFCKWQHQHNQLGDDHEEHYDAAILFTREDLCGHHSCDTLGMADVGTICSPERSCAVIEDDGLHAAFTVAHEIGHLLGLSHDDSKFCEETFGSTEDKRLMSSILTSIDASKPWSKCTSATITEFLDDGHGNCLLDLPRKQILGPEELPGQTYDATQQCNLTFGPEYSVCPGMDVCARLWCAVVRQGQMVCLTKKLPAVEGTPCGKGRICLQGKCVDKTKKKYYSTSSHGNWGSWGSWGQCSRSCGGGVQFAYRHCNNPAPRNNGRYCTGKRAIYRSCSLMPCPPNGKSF
Outline: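 Kinetic fluorescence (λex 340, λem 420 nm) monitored over 40 min at 30 °C after adding 25 μM final Abz/Dnp brevican-based quenched peptide. Enzyme: recombinant truncated human Agg2-Phe628 from CHO, 0.5 μg/ml final, mixed with inhibitor first; buffer HEPES pH 7.5 with NaCl, CaCl2, CHAPS, glycerol; compounds in duplicate.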

Agg-1 = molecular target: T2, Agg-1 (Homo sapiens, UniProt O75173); experiment: Agg-1 FRET assay; type: biochemical; conditions: for inhibition at 33 µM: @ 33000 nM; for inhibition at 22 µM: @ 22000 nM; for inhibition at 66.7 µM: @ 66700 nM; for inhibition at 11 µM: @ 11000 nM; for inhibition at 0.8 µM: @ 800 nM
T2 sequence (O75173 213-837): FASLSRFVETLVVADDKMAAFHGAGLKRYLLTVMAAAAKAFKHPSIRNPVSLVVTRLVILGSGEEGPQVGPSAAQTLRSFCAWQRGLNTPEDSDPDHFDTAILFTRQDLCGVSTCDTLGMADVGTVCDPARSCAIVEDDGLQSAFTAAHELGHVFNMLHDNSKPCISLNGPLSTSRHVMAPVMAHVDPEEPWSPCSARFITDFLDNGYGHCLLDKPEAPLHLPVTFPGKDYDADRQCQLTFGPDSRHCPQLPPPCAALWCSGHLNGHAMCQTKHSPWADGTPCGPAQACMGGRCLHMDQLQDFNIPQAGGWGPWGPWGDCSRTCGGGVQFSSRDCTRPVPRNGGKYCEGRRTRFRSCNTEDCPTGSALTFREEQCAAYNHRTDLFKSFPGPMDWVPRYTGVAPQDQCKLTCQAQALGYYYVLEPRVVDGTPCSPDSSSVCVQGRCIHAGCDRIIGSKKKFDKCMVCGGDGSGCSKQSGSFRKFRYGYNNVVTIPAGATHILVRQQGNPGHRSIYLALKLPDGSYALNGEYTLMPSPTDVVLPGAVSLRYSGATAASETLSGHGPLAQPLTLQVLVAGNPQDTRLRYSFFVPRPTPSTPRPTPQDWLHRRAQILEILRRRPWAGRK
Source text: The Agg-1/Agg-2 FRET data for N-[(8-hydroxyquinolin-2-yl)(phenyl)methyl]-2-phenoxyacetamide and 2-{[(phenoxyacetyl)amino](phenyl)methyl}quinolin-8-yl phenoxyacetate is presented in Table 1.

[2] = read-out: Agg-2 FRET Median IC50

Compound: O=C(COc1ccc(Br)cc1)NC(c1ccccc1)c1cc(Cl)c2cccnc2c1O (centres unmarked) [Example 209, 2-(4-bromophenoxy)-N-[(5-chloro-8-hydroxyquinolin-7-yl)(phenyl)methyl]acetamide]
- IC50 ([1]; read-out: Agg2 IC50): 18000 nM
- inhibition at […] (Agg-1; @ 2500 nM, read-out: Agg1 %): 44%

Compound: O=C(COc1ccccc1)NC(c1ccc(-n2cccn2)cc1)c1cc(Cl)c2cccnc2c1O (centres unmarked) [Example 145, N-{(5-chloro-8-hydroxyquinolin-7-yl)[4-(1H-pyrazol-1-yl)phenyl]methyl}-2-phenoxyacetamide]
- IC50 ([1]; read-out: Agg2 IC50): 1200 nM
- IC50 (Agg-1; read-out: Agg1 IC50): 5800 nM

Compound: CCCCCc1ccc(OCC(=O)NC(c2ccccc2Cl)c2cc(Cl)c3cccnc3c2O)cc1 (centres unmarked) [N-[(5-chloro-8-hydroxyquinolin-7-yl)(2-chlorophenyl)methyl]-2-(4-pentylphenoxy)acetamide]
- inhibition at 22 µM ([1]; @ 22000 nM, read-out: Agg2 %): 50%
- inhibition at 33 µM (Agg-1; read-out: Agg1 %): 44%

Compound: O=C(COc1ccccc1)NC(C1=CCCCC1)c1cc(Cl)c2cccnc2c1O (centres unmarked) [N-[(5-chloro-8-hydroxyquinolin-7-yl)(cyclohex-1-en-1-yl)methyl]-2-phenoxyacetamide]
- inhibition at […] ([1]; @ 1900 nM): 42%
- IC50 (Agg-1; read-out: Agg1 IC50): 1000 to 8000 nM

Compound: Cc1ccc2occ(C(NC(=O)COc3ccccc3)c3cc(Cl)c4cccnc4c3O)c(=O)c2c1 (centres unmarked) [N-[(5-chloro-8-hydroxyquinolin-7-yl)(6-methyl-4-oxo-4H-chromen-3-yl)methyl]-2-phenoxyacetamide]
- IC50 ([1]; read-out: Agg2 IC50): 1200 nM
- inhibition at 7.4 µM (Agg-1; @ 7400 nM, read-out: Agg1 %): 43%

Compound: O=C(COc1ccc(Br)cc1)NC(c1ccccc1Cl)c1cc(Cl)c2cccnc2c1O (centres unmarked) [Example 220, 2-(4-bromophenoxy)-N-[(5-chloro-8-hydroxyquinolin-7-yl)(2-chlorophenyl)methyl]acetamide]
- IC50 ([1]; read-out: Agg2 IC50): 2400 nM
- IC50 (Agg-1; read-out: Agg1 IC50): 22000 to 67000 nM

Compound: Cc1ccsc1C(NC(=O)COc1ccccc1)c1cc(Cl)c2cccnc2c1O (centres unmarked) [N-[(5-chloro-8-hydroxyquinolin-7-yl)(3-methyl-2-thienyl)methyl]-2-phenoxyacetamide]
- IC50 ([1]; read-out: Agg2 IC50): 1370 nM
- IC50 [1, 2]: 1370 nM
- inhibition at 33 µM (Agg-1; read-out: Agg1 %): 33%

Compound: CS(=O)(=O)Nc1cccc(C(NC(=O)COc2ccccc2)c2cc(Cl)c3cccnc3c2OS(C)(=O)=O)c1 (centres unmarked) [Example 203, 5-chloro-7-{{3-[(methylsulfonyl)amino]phenyl}[(phenoxyacetyl)amino]methyl}quinolin-8-yl methanesulfonate]
- Agg-2 FRET Median PCT INHIB ([1]; concentration not given): 20%
- IC50 ([1]; read-out: Agg2 IC50): > 30000 nM
- IC50 (Agg-1; read-out: Agg1 IC50): > 20000 nM

Compound: O=C(COc1ccccc1)NC(c1ccccc1)c1ccc2cccc(O)c2n1 (centres unmarked) [Example 276, N-[(8-hydroxyquinolin-2-yl)(phenyl)methyl]-2-phenoxyacetamide]
- inhibition at 200 µM ([1]; @ 200 (μM), read-out: Agg-2 FRET % (printed in FRET IC50 column)): 32%
- IC50 (Agg-1; read-out: FRET IC50 Agg-1): 15000 nM

Compound: O=C(CNCc1ccc2c(c1)OCO2)NC(c1ccccc1)c1cc(Cl)c2cccnc2c1O (centres unmarked) [Example 226, N^2-(1,3-benzodioxol-5-ylmethyl)-N-[(5-chloro-8-hydroxyquinolin-7-yl)(phenyl)methyl]glycinamide]
- IC50 ([1]; read-out: Agg2 IC50): 2750 nM
- IC50 [1, 2]: 2750 nM
- IC50 (Agg-1; read-out: Agg1 IC50): > 11000 nM

Compound: CNCC(=O)Nc1cccc(C(NC(=O)COc2ccccc2)c2cc(Cl)c3cccnc3c2O)c1 (centres unmarked) [Example 207, N-(3-{(5-chloro-8-hydroxyquinolin-7-yl)[(phenoxyacetyl)amino]methyl}phenyl)-N-2-methylglycinamide]
- IC50 ([1]; read-out: Agg2 IC50): 3500 nM
- IC50 (Agg-1; read-out: Agg1 IC50): 22000 to 67000 nM

Results, then the compound that gave them:

- IC50 ([1]; read-out: Agg2 IC50): 1800 nM
- inhibition at 22 µM (Agg-1; read-out: Agg1 %): 44%
Compound: COc1cccc(C(NC(=O)COc2ccccc2)c2cc(Cl)c3cccnc3c2O)c1 (centres unmarked) [Example 126, N-[(5-chloro-8-hydroxyquinolin-7-yl)(3-methoxyphenyl)methyl]-2-phenoxyacetamide]

- IC50 ([1]; read-out: Agg2 IC50): 2300 nM
- IC50 [1, 2]: 2340 nM
- inhibition at 667 µM (Agg-1; @ 667000 nM, read-out: Agg1 %): 48%
Compound: COc1ccccc1C(NC(=O)COc1ccccc1)c1cc(Cl)c2cccnc2c1O (centres unmarked) [Example 122, N-[(5-chloro-8-hydroxyquinolin-7-yl)(2-methoxyphenyl)methyl]-2-phenoxyacetamide]

- IC50 ([1]; read-out: Agg2 IC50): 1000 nM
- IC50 (Agg-1; read-out: Agg1 IC50): ~22000 nM
Compound: COc1cc(OC)cc(OCC(=O)NC(c2ccccc2Cl)c2cc(Cl)c3cccnc3c2O)c1 (centres unmarked) [N-[(5-chloro-8-hydroxyquinolin-7-yl)(2-chlorophenyl)methyl]-2-(3,5-dimethoxyphenoxy)acetamide]

- inhibition at 33.3 µM ([1]; @ 33300 nM): 52%
- inhibition at 66.7 µM (Agg-1; read-out: Agg1 %): 40%
Compound: CCCCN(CCCC)c1ccc(C(NC(=O)COc2ccccc2)c2cc(Cl)c3cccnc3c2O)cc1 (centres unmarked) [Example 136, N-{(5-chloro-8-hydroxyquinolin-7-yl)[4-(dibutylamino)phenyl]methyl}-2-phenoxyacetamide]

- IC50 ([1]; read-out: Agg2 IC50): 400 to 1200 nM
- inhibition at 66.7 µM (Agg-1; read-out: Agg1 %): 49%
Compound: O=C(COc1ccccc1)NC(c1cc2ccccc2o1)c1cc(Cl)c2cccnc2c1O (centres unmarked) [Example 168, N-[1-benzofuran-2-yl(5-chloro-8-hydroxyquinolin-7-yl)methyl]-2-phenoxyacetamide]

- inhibition at […] ([1]; @ 2500 nM): 53%
- inhibition at 11 µM (Agg-1; read-out: Agg1 %): 46%
Compound: Cn1cc(C(NC(=O)COc2ccccc2)c2cc(Cl)c3cccnc3c2O)c2ccccc21 (centres unmarked) [N-[(5-chloro-8-hydroxyquinolin-7-yl)(1-methyl-1H-indol-3-yl)methyl]-2-phenoxyacetamide]

- IC50 ([1]; read-out: Agg2 IC50): 2530 nM
- IC50 [1, 2]: 2530 nM
- inhibition at 0.8 µM (Agg-1; read-out: Agg1 %): 40%
Compound: C/C=C/C(NC(=O)COc1ccccc1)c1cc(Cl)c2cccnc2c1O (centres unmarked) [Example 187, N-[(2E)-1-(5-chloro-8-hydroxyquinolin-7-yl)but-2-en-1-yl]-2-phenoxyacetamide]

- IC50 ([1]; read-out: Agg2 IC50): 5400 nM
- IC50 (Agg-1; read-out: Agg1 IC50): > 200000 nM
Compound: O=C(COc1ccccc1)NC(c1ccc(-c2ccccc2)cc1)c1cc(Cl)c2cccnc2c1O (centres unmarked) [N-[biphenyl-4-yl(5-chloro-8-hydroxyquinolin-7-yl)methyl]-2-phenoxyacetamide]

- IC50 ([1]; read-out: Agg2 IC50): 2320 nM
- IC50 [1, 2]: 2320 nM
- IC50 (Agg-1; read-out: Agg1 IC50): > 22000 nM
Compound: Cc1ccc(C(NC(=O)COc2ccccc2)c2cc(Cl)c3cccnc3c2O)o1 (centres unmarked) [N-[(5-chloro-8-hydroxyquinolin-7-yl)(5-methyl-2-furyl)methyl]-2-phenoxyacetamide]

- IC50 ([1]; read-out: Agg2 IC50): 1500 nM
- IC50 (Agg-1; read-out: Agg1 IC50): 66000 to 200000 nM
Compound: Cc1ccc(C(NC(=O)COc2ccccc2)c2cc(Cl)c3cccnc3c2O)cc1C (centres unmarked) [N-[(5-chloro-8-hydroxyquinolin-7-yl)(3,4-dimethylphenyl)methyl]-2-phenoxyacetamide]

- inhibition at […] ([1]; @ 2500 nM): 47%
- inhibition at 0.8 µM (Agg-1; read-out: Agg1 %): 30%
Compound: CCC/C=C/C(NC(=O)COc1ccccc1)c1cc(Cl)c2cccnc2c1O (centres unmarked) [N-[(2E)-1-(5-chloro-8-hydroxyquinolin-7-yl)hex-2-en-1-yl]-2-phenoxyacetamide]

- IC50 ([1]; read-out: Agg2 IC50): 970 nM
- IC50 [1, 2]: 970 nM and 1220 nM
- inhibition at 22.2 µM (Agg-1; @ 22200 nM, read-out: Agg1 %): 49%
Compound: O=C(COc1ccccc1)N[C@@H](c1ccccc1Cl)c1cc(Cl)c2cccnc2c1O [N-[(R)-(5-chloro-8-hydroxyquinolin-7-yl)(2-chlorophenyl)methyl]-2-phenoxyacetamide]

- inhibition at 2.8 µM ([1]; @ 2800 nM): 45%
- inhibition at 11 µM (Agg-1; read-out: Agg1 %): 34%
Compound: O=C(COc1ccccc1)NC(c1cc(Cl)c2cccnc2c1O)c1ccnc2ccccc12 (centres unmarked) [N-[(5-chloro-8-hydroxyquinolin-7-yl)(quinolin-4-yl)methyl]-2-phenoxyacetamide]

- IC50 ([1]; read-out: Agg2 IC50): > 28000 nM
- IC50 (Agg-1; read-out: Agg1 IC50): > 67000 nM
Compound: O=C(NC(Cc1ccccc1)c1cc(Cl)c2cccnc2c1O)OCc1ccccc1 (centres unmarked) [benzyl [1-(5-chloro-8-hydroxyquinolin-7-yl)-2-phenylethyl]carbamate]

- inhibition at 11 µM ([1]; @ 11000 nM): 52%
- inhibition at 22 µM (Agg-1; read-out: Agg1 %): 51%
Compound: O=C(COc1ccccc1)NC(c1cccc(Oc2ccc(Cl)cc2)c1)c1cc(Cl)c2cccnc2c1O (centres unmarked) [Example 129, N-{(5-chloro-8-hydroxyquinolin-7-yl)[3-(4-chlorophenoxy)phenyl]methyl}-2-phenoxyacetamide]
